Data reported in patent US10928398B2, “Method for double staining colocalized nuclear-markers in histological lymphoid or bone marrow tissue sample” (CORNELL UNIVERSITY, priority 2008, dated 2021).

Tests used:
relapsed MM = assay: Time to progression of relapsed MM patients receiving high-dose Dex in prospective clinical trials; format: in vivo, human
Text: High-dose pulsed dexamethasone (Dex) is one of the preferred treatments for relapsed MM patients and is currently the accepted gold standard against which investigational drugs are being tested. The predictors of outcome for relapsed patients while on Dexamthasone (Dex) treatment have not been well established. These predictors were prospectively evaluated using the Ki-67/MUM1 markers in patients with relapsed MM receiving Dex in consecutive, prospective clinical trials. Time to progression is defined as date of Dex initiation to date of progressive disease (PD). Sixteen patients with relapsed MM were evaluated.

[1] = tested on: Rb phosphorylation by Cdk4/6 at serine 807/811 (pS807/811Rb) in lymphoma cells; assay: Double IHC PAX5/pS807/811Rb with image analysis of lymph node biopsies of a B cell lymphoma patient in a phase I trial; format: in vivo, human; settings: day 21 of therapy, 84.08% before treatment
Text: (§1) The double stained IHC slides were accessioned into the image analysis system and then loaded onto the machine in batches of 60. A robotic arm picked up each slide, one at a time, and loaded it onto the microscope. Via a motorized stage, the microscope moves and scans the slide, looking for tissue, the location of which varies slightly from slide to slide. Once it has found the tissue, the device scans the tissue and the camera records low resolution images. Using the scanned low resolution images, the inventor selected ten good areas for subsequent high resolution scanning and analysis. Numerous data points were then calculated for each of the ten areas per slide, and those data were averaged.
(§2) Since no counterstain was used in these slides, all identifiable cells are positive for at least one marker (e.g., in FIG. 3A, cells that express neither MUM1 nor pSRb are not visible). The characteristics used for the analysis (“classifiers”) were determined by a process whereby the inventor trained the software what was considered to be cells of each color. The software analyzed the high resolution images by first applying color parameters to decide if a nucleus was blue, red, or purple. It finds pixels within the appropriate range of color parameters as defined by hue, saturation, and intensity; objects too light or too dark, as determined by the classifiers, were not included in the analysis. […]

[2] = tested on: Ki67 expression in lymphoma cells; assay: Double IHC PAX5/Ki67 with image analysis of lymph node biopsies of a B cell lymphoma patient in a phase I trial; format: in vivo, human; settings: day 21 of therapy, 97.52% prior to treatment
Text: as §1, §2

[3] = tested on: MM cells (MUM1 positive) expressing Ki67 or pSRb; assay: Double IHC MUM1/Ki67 or MUM1/pSRb of bone marrow biopsies of multiple myeloma patients in a phase I/II trial; format: in vivo, human; settings: for Effect on cycling of MM cells (Ki67, pSRb): MM patient bone marrow, after treatment for 8 days
Protocol: In hematopoietic cancer biopsies, the non-cancer hematopoietic and immune cells must be excluded. In this example, multiple myeloma (MM) cells were identified in biopsy samples with an anti-MUM1 antibody and a detection system yielding a red signal. Specificity of MUM1 for myeloma cells in MM biopsies is estimated at ˜99%, thus excluding non-MM cells from the analysis. Double IHC was performed to detect cell cycle molecules in situ in MM cells. Each slide was stained for MUM1 (above) using Bond™ Polymer AP Red Detection System (DS9305, Leica, Bannockburn, Ill.) to afford a red pigment, and for the cell cycle molecule with Blue Alkaline Phosphate Substrate Kit (Vector Laboratories, Burlingame, Calif.) to afford a blue pigment. The cell cycle molecules, including Ki67 and pSRb, are nuclear. With these particular chromogen systems, double staining yielded MM cells with either a red nuclear signal if the cell was not proliferating or a purple nuclear signal if the MM cells were proliferating (positive for the cell cycle molecule in question). Cells with a blue nuclear signal ([…]) were non MM cells (FIG. 3A) that were proliferating.
To compute the percentage of MM cells expressing various cell cycle molecules, purple (MUM1+/cell cycle molecule+) cells were manually counted as a percentage of purple cells plus red (MUM1+/cell cycle molecule negative) cells. This manual method of analysis can be performed with any standard microscope.
To increase the accuracy, the same slides were first loaded in batches of 60 into an image analysis system, which performs photographic digital scans of each slide. Using an automatic image analyzer, the number of cells with a purple nucleus and those with a red nucleus in a given area was determined. The counts were performed in triplicate. The percentage of MM cells in the proliferative stage represented by the cell cycle molecule targeted is the number of purple cells divided by the number of purple and red cells. […] The intensity of positive staining was scored in comparison to expression in B cells from serial sections of a single tonsil control slide, run in parallel with the marrow slides. […]
IHC was performed on 4 micron sections of paraffin-embedded bone marrow tissues using a Leica Microsystems (Bannockburn, Ill.) Bond Max automated immunostainer. MUM1 MM cells were detected using an anti-MUM1 mouse monoclonal antibody (Mab) (Dako, Carpinteria, Calif.) and the Bond™ Polymer AP Red Detection System (Leica). Simultaneous expression of other proteins was detected with monoclonal antibodies to Ki-67, cyclin D1, cyclin D2, cyclin D3, MCM2, MCM7, skp2, p16, p18, p21, p27, Rb, c-myc, Cdk4 and Cdk6 and polyclonal rabbit antisera to either pSer^807/811, pSer^608 or pSer^780 of human Rb. […]

Myeloma = settings: cited from earlier work

C[C@@H]1C[C@H]2[C@@H]3CCC4=CC(=O)C=C[C@]4(C)[C@@]3(F)[C@@H](O)C[C@]2(C)[C@@]1(O)C(=O)CO [Dex, dexamethasone]
Patients showing progressive disease (relapsed MM; 16 patients with relapsed MM, n=9): 56% | Median time to progressive disease (relapsed MM; patients with progressive disease, from Dex initiation): 87 days

CC(=O)c1c(C)c2cnc(Nc3ccc(N4CCNCC4)cn3)nc2n(C2CCCC2)c1=O [PD-332991]
pS807/811Rb found in % of lymphoma cells [1]: 2.14% | Ki67 expression in % of lymphoma cells [2]: 23.13% | MM patients showing similar efficacy ([3]; 11/11 MM patients): 100% | Effect on cycling of MM cells (Ki67, pSRb) [3]: great efficacy | Effect on cycling of MM cells (Ki67, pSRb) ([3]; listed as CDk4/6 inhibitor): no longer cycling | Cycling of MM cells after cessation of drug ([3]; biopsies 6 days after cessation of drug administration): returned to cycling in percentages comparable to what was observed prior to treatment

CC(C)C[C@H](NC(=O)[C@H](Cc1ccccc1)NC(=O)c1cnccn1)B(O)O [PS-341(bortezomib), bortezomib]
Responsiveness, % of patients (Myeloma): 30%
